Assay results published in PubChem BioAssay (NCI).
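Each compound was tested at five concentrations against cells in 96-well plates for 48 hours. GI50 = concentration required for 50% inhibition of growth. Definition used: TGI = concentration required for complete inhibition of growth.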

What was measured:
Assay in all cases: NCI anticancer screen, dose series, 48 h
[1] = tested on: A498 renal
[2] = tested on: MOLT-4 leukemia
[3] = tested on: HT29 colon
[4] = tested on: SK-MEL-5 melanoma
[5] = tested on: PC-3 prostate
[6] = tested on: A549 NSCLC
[7] = tested on: OVCAR-3 ovarian
[8] = tested on: SF-268 CNS
[9] = tested on: ACHN renal
[10] = tested on: SN12C renal
[11] = tested on: K-562 leukemia
[12] = tested on: SK-OV-3 ovarian
[13] = tested on: LOX IMVI melanoma
[14] = tested on: IGROV1 ovarian
[15] = tested on: U251 CNS
[16] = tested on: MDA-MB-435
[17] = tested on: UACC-257 melanoma
[18] = tested on: T-47D breast
[19] = tested on: BT-549 breast
[20] = tested on: HL-60(TB) leukemia
[21] = tested on: NCI/ADR-RES ovarian
[22] = tested on: CAKI-1 renal
[23] = tested on: NCI-H522 lung
[24] = tested on: HCC-2998 colon
[25] = tested on: SR leukemia
[26] = tested on: RPMI-8226 leukemia
[27] = tested on: DU-145 prostate
[28] = tested on: CCRF-CEM leukemia
[29] = tested on: TK-10 renal
[30] = tested on: 786-0 renal
[31] = tested on: OVCAR-8 ovarian
[32] = tested on: SK-MEL-2 melanoma
[33] = tested on: MDA-MB-231 breast
[34] = tested on: KM12 colon
[35] = tested on: NCI-H226 lung
[36] = tested on: M14 melanoma
[37] = tested on: UACC-62 melanoma
[38] = tested on: SF-539 CNS
[39] = tested on: NCI-H23 lung
[40] = tested on: OVCAR-4 ovarian
[41] = tested on: OVCAR-5 ovarian
[42] = tested on: COLO 205 colon
[43] = tested on: UO-31 renal
[44] = tested on: NCI-H460 lung
[45] = tested on: SK-MEL-28 melanoma
[46] = tested on: HOP-92 NSCLC
[47] = tested on: MALME-3M melanoma
[48] = tested on: HS 578T breast
[49] = tested on: RXF 393 renal
[50] = tested on: SNB-19 CNS
[51] = tested on: MCF7 breast
[52] = tested on: SW-620 colon
[53] = tested on: HOP-62 NSCLC
[54] = tested on: HCT-116 colon
[55] = tested on: SF-295 CNS
[56] = tested on: SNB-75 CNS
[57] = tested on: HCT-15 colon
[58] = tested on: EKVX NSCLC

Molecule `C=C1c2c(C)nn(-c3ccc(C#CCOC4OC(CO)C(O)C(O)C4O)cc3)c2N(C)C23C[C@H]1C1(C)c4c(C)nn(-c5ccc(C#CCOC6OC(CO)C(O)C(O)C6O)cc5)c4N(C)C(C)(C[C@H]12)C3` (some centres not stated) has a GI50 [1] of 1.5 µM, a TGI [1] of 3.18 µM and a GI50 [2] of 1.28 µM. The TGI [2] was 3.88 µM, the GI50 [3] was 1.63 µM and the TGI [3] was 4.21 µM. For the same molecule, the GI50 [4] was 1.38 µM, the TGI [4] was 2.71 µM and the GI50 [5] was 0.702 µM. The TGI [5] was 2.56 µM, the GI50 [6] was 1.68 µM and the TGI [6] was 4.09 µM. The GI50 [7] was 1.52 µM, the TGI [7] was 3.8 µM and the GI50 [8] was 1.75 µM. The TGI [8] was 3.57 µM, the GI50 [9] was 2.42 µM and the TGI [9] was 10.6 µM. It also gave a GI50 [10] of 1.38 µM, a TGI [10] of 3.72 µM and a GI50 [11] of 1.89 µM. For the same molecule, the TGI [11] was 6.75 µM, the GI50 [12] was 1.72 µM and the TGI [12] was 3.11 µM. It also gave a GI50 [13] of 1.37 µM, a TGI [13] of 2.79 µM and a GI50 [14] of 1.56 µM. The TGI [14] was 3.95 µM, the GI50 [15] was 1.19 µM and the TGI [15] was 2.59 µM. The GI50 [16] was 1.67 µM, the TGI [16] was 3.77 µM and the GI50 [17] was 1.82 µM. It also gave a TGI [17] of 4.56 µM, a GI50 [18] of 0.687 µM and a TGI [18] of 6.8 µM. It also gave a GI50 [19] of 1.3 µM, a TGI [19] of 2.97 µM and a GI50 [20] of 2.07 µM. The TGI [20] was 4.43 µM, the GI50 [21] was 5.43 µM and the TGI [21] was 47 µM. The GI50 [22] was 2.81 µM, the TGI [22] was 11.6 µM and the GI50 [23] was 1.67 µM. For the same molecule, the TGI [23] was 3.26 µM, the GI50 [24] was 1.57 µM and the TGI [24] was 3.15 µM. For the same molecule, the GI50 [25] was 3.28 µM, the TGI [25] was > 100 µM and the GI50 [26] was 0.29 µM. For the same molecule, the TGI [26] was 1.72 µM, the GI50 [27] was 1.97 µM and the TGI [27] was 5.16 µM. For the same molecule, the GI50 [28] was 1.04 µM, the TGI [28] was 5.03 µM and the GI50 [29] was 2.01 µM. It also gave a TGI [29] of 4.04 µM, a GI50 [30] of 2.66 µM and a TGI [30] of 7.78 µM. It also gave a GI50 [31] of 1 µM, a TGI [31] of 3.84 µM and a GI50 [32] of 1.76 µM. It also gave a TGI [32] of 3.39 µM, a GI50 [33] of 1.5 µM and a TGI [33] of 3.06 µM. It also gave a GI50 [34] of 1.44 µM, a TGI [34] of 2.9 µM and a GI50 [35] of 1.62 µM. For the same molecule, the TGI [35] was 3.7 µM, the GI50 [36] was 1.67 µM and the TGI [36] was 3.44 µM. For the same molecule, the GI50 [37] was 1.22 µM, the TGI [37] was 2.86 µM and the GI50 [38] was 1.78 µM. It also gave a TGI [38] of 3.33 µM, a GI50 [39] of 2.33 µM and a TGI [39] of 6.59 µM. The GI50 [40] was 1.68 µM, the TGI [40] was 9.94 µM and the GI50 [41] was 1.78 µM. It also gave a TGI [41] of 3.54 µM, a GI50 [42] of 1.47 µM and a TGI [42] of 2.88 µM. For the same molecule, the GI50 [43] was 2.83 µM, the TGI [43] was 10.1 µM and the GI50 [44] was 1.69 µM. It also gave a TGI [44] of 3.85 µM, a GI50 [45] of 1.9 µM and a TGI [45] of 3.52 µM. It also gave a GI50 [46] of 0.437 µM, a TGI [46] of 2.52 µM and a GI50 [47] of 1.87 µM. For the same molecule, the TGI [47] was 3.66 µM, the GI50 [48] was 0.472 µM and the TGI [48] was 9.85 µM. The GI50 [49] was 1.62 µM, the TGI [49] was 3.52 µM and the GI50 [50] was 1.66 µM. It also gave a TGI [50] of 3.95 µM, a GI50 [51] of 1.38 µM and a TGI [51] of 3.2 µM. For the same molecule, the GI50 [52] was 1.72 µM, the TGI [52] was 3.77 µM and the GI50 [53] was 1.49 µM. It also gave a TGI [53] of 2.88 µM.

In the case of `O=C1/C(=C/C=C/c2ccccc2)CCC1CNc1ccccc1` (configuration not stated), the TGI [1] is reported as > 100 µM, the TGI [2] is reported as > 100 µM and the TGI [3] is reported as 63.9 µM. For the same molecule, the TGI [54] was > 50 µM, the TGI [4] was > 100 µM and the TGI [5] was > 100 µM. For the same molecule, the TGI [6] was > 100 µM, the TGI [7] was > 68.9 µM and the TGI [8] was > 100 µM. For the same molecule, the TGI [9] was > 100 µM, the TGI [10] was 63.9 µM and the TGI [55] was > 100 µM. The TGI [11] was > 35.6 µM, the TGI [12] was > 100 µM and the TGI [13] was 40 µM. The TGI [14] was > 71.8 µM, the TGI [15] was > 100 µM and the TGI [16] was > 86 µM. The TGI [17] was > 100 µM, the TGI [18] was > 68.4 µM and the TGI [19] was > 69 µM. For the same molecule, the TGI [56] was > 100 µM, the TGI [20] was 16.7 µM and the TGI [21] was > 100 µM. For the same molecule, the TGI [22] was > 100 µM, the TGI [57] was 50.1 µM and the TGI [23] was > 22.7 µM. The TGI [24] was > 100 µM, the TGI [25] was > 100 µM and the TGI [27] was > 100 µM. The TGI [28] was 27.5 µM, the TGI [29] was > 74.7 µM and the TGI [30] was 41.2 µM. For the same molecule, the TGI [31] was > 100 µM, the TGI [58] was > 100 µM and the TGI [33] was 51.7 µM. For the same molecule, the TGI [34] was 39.3 µM, the TGI [35] was > 100 µM and the TGI [36] was > 100 µM. The TGI [37] was > 100 µM, the TGI [38] was > 77.5 µM and the TGI [39] was > 80.9 µM. For the same molecule, the TGI [40] was > 100 µM, the TGI [41] was > 100 µM and the TGI [42] was > 94.3 µM. The TGI [43] was > 100 µM, the TGI [44] was > 100 µM and the TGI [45] was > 100 µM. For the same molecule, the TGI [46] was > 95.1 µM, the TGI [47] was > 100 µM and the TGI [48] was > 100 µM. The TGI [49] was 38.1 µM, the TGI [50] was > 89.8 µM and the TGI [51] was 32.7 µM. For the same molecule, the TGI [52] was > 90.4 µM and the TGI [53] was > 100 µM.
